Measurements from patent US20220275376A1, “TARGETING SLC38A2 IN PANCREATIC CANCER” (New York University, priority 2019, published 2022).

Tests used:
[1] = system: HY19636 cells; assay: Intracellular amino acid levels in SLC38A2-deficient HY19636 cells after alanine supplementation; type: cell-based, mouse; conditions: SLC38A2-deficient (sgSlc38a2 #1) HY19636 cells, 1 mM, 24 hours
Description: (A) Serine, glycine, proline, and glutamate extracellular fluxes in SLC38A2-deficient (sgSLC38A2 #1, #3) and control (sgTom) HY19636, MiaPaCa2, and PANC1 cells cultured in DMEM. Extracellular accumulation (+, secretion) or depletion (−, uptake) was measured in conditioned media over 24 hours and normalized to the viable cell density over the time course. Error bars depict s.d. of three independent experiments. (B) Essential amino acid (leucine, isoleucine, valine, threonine) uptake fluxes in SLC38A2-deficient (sgSLC38A2 #1, #3) and control (sgTom) HY19636, MiaPaCa2, and PANC1 cells cultured in DMEM for 24 hours. Error bars depict s.d. of three independent experiments. […] Data presented as a percent change for each amino acid relative to that measured in DMEM conditions. […]
For ^13C- and ^15N-labeled alanine tracing experiments, cells were plated into 6-well plates at 250,000 cells/well and allowed to attach overnight. […] Fatty acid labeling from ^13C3-alanine was measured by transferring 400 μL of the inorganic layer to a glass vial and evaporating under nitrogen flow in a needle evaporator prior to transesterification and GC-MS analysis. To quantify contribution to proteogenic amino acid pools, the insoluble interphase layer containing proteins was washed three times with HPLC-grade acetone and allowed to dry overnight with gentle nitrogen flow in a needle evaporator. […]

[2] = target: T1, SLC38A2 (Homo sapiens, UniProt Q96QD8); assay: SLC38A2 activity measured by MeAIB uptake in HY15549 dox-inducible SNAT2 cells; type: cell-based; conditions: 20 μm compound, MeAIB 0.3 mM, 1 hour, vs vehicle (PBS), HY15549 cells expressing dox-inducible SLC38A2/SNAT2
T1 construct: expressed in transfected cells; host or cells: HY15549 cells with dox-inducible SNAT2
T1 sequence (Q96QD8 1-506): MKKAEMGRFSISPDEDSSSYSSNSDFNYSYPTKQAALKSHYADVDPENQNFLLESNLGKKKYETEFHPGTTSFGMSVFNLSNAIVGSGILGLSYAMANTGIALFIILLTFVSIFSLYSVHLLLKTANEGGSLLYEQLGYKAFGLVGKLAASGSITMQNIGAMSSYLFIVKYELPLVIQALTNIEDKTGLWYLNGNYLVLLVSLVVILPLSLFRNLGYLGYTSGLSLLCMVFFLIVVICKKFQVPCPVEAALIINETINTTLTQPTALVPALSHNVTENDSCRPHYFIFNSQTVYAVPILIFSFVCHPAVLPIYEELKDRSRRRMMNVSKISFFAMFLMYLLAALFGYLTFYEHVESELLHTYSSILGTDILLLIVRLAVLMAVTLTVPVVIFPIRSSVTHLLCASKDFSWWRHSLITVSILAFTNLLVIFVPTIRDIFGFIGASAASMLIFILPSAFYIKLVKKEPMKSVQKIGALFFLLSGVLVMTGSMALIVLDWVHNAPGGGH
Description: (A) Schematic depicting SLC38A2-dependent update of alanine structural analog, methyl α-aminoisobutyrate (MeAIB). […] (B) Total ion chromatogram (TIC) of HY15549 dox-inducible SNAT2 cells treated with 1 mM MeAIB for 24 hours compared to vehicle (PBS). […] HY15549 dox-inducible SNAT2 cells were cultured with a concentration gradient of MeAIB for 15 minutes (gray circles) or 60 minutes (black squares). (D) Western blot depicting SLC38A2 expression relative to doxycycline after 24 hours culture in HY15549 dox-inducible SNAT2 cells. (E) Intracellular MeAIB levels in HY15549 dox-inducible cells cultured with dox (+SNAT2, left bar) and without dox (KO, right bar) for 24 hours with 1 mM MeAIB. (F) Intracellular MeAIB levels in HY15549 dox-inducible cells cultured with vehicle, paroxetine (PXT, 20 μM), or sertraline (SRT, 20 μm) for 24 hours with 300 μM MeAIB.

[3] = system: 8988T cells; assay: Alanine uptake from culture media conditioned by 8988T cells; type: cell-based; conditions: 10 μM, vs vehicle (DMSO), up to 96 hours
Description: (A) Alanine levels in culture media conditioned by 8988T cells treated with vehicle (DMSO) or fluvoxamine (FVX, 10 μM) over time. (B) Alanine uptake flux by 8988T cells treated with vehicle (DMSO) or fluvoxamine (FVX, 10 μM) for 96 hours. Data were normalized to cell growth over the treatment period. (C) Glutamine levels in culture media conditioned by 8988T cells treated with vehicle (DMSO) or fluvoxamine (FVX, 10 μM) over time. (D) Absolute values for amino acid uptake or secretion flux by 8988T cells treated with vehicle (DMSO) or fluvoxamine (FVX, 10 μM) for 96 hours. Data were normalized to cell growth over the treatment period.
Fluvoxamine (FVX), fluoxetine (FLX), paroxetine (PXT), sertindole (SND), and blonanserin (BNS) were acquired from Cayman Chemicals. Desipramine (DPM), α-(Methylamino) isobutyric acid (MeAIB), and L-alanine were acquired from Sigma. Stocks were prepared at 10 mM or 7.5 mM (BNS) in DMSO. Cells were treated with vehicle (DMSO) or varying concentrations of drug for indicated time. Conditioned media was collected and centrifuged at 1,000×g to remove cell debris followed by extraction of metabolites. For metabolite extraction, cells were first washed with ice cold 0.9% NaCl to remove media contamination followed by addition of 500 μL methanol (−20° C.) and 200 μL HPLC grade water (4° C.). […]

| SMILES | rescue of amino acid defect (change in intracellular amino acids relative to DMEM) [1] | inhibition of MeAIB uptake (intracellular MeAIB levels) [2] | alanine uptake in PDAC cells [3] |
| --- | --- | --- | --- |
| C[C@H](N)C(=O)OC(C)(C)C [L-alanine tert-butyl ester] | failed to rescue amino acid defect |  |  |
| C[C@H](N)C(=O)O [L-alanine] | failed to rescue amino acid defect |  |  |
| COCCCC/C(=N\OCCN)c1ccc(C(F)(F)F)cc1 [fluvoxamine] |  | inhibited | significantly and specifically inhibits alanine uptake |
